Reference: ChEMBL document CHEMBL5365522, “Discovery of potential novel TRPC5 inhibitors by virtual screening and bioassay” (Bioorg Med Chem, 2023)
The source made the active and inactive calls. The calls are words filed in the database; no cut-off is given here.

Legend:
[1] = biological target: T1, Short transient receptor potential channel 5 (Homo sapiens, UniProt Q9UL62); assay: Inhibition of human TRPC5 expressed in HEK293T cells assessed as intracellular calcium influx by measuring Ca2+ flow inhibition after 30 mins by Fluo-4 AM dye based fluorescence analysis; assay type: cell-based
T1 sequence (Q9UL62 whole entry): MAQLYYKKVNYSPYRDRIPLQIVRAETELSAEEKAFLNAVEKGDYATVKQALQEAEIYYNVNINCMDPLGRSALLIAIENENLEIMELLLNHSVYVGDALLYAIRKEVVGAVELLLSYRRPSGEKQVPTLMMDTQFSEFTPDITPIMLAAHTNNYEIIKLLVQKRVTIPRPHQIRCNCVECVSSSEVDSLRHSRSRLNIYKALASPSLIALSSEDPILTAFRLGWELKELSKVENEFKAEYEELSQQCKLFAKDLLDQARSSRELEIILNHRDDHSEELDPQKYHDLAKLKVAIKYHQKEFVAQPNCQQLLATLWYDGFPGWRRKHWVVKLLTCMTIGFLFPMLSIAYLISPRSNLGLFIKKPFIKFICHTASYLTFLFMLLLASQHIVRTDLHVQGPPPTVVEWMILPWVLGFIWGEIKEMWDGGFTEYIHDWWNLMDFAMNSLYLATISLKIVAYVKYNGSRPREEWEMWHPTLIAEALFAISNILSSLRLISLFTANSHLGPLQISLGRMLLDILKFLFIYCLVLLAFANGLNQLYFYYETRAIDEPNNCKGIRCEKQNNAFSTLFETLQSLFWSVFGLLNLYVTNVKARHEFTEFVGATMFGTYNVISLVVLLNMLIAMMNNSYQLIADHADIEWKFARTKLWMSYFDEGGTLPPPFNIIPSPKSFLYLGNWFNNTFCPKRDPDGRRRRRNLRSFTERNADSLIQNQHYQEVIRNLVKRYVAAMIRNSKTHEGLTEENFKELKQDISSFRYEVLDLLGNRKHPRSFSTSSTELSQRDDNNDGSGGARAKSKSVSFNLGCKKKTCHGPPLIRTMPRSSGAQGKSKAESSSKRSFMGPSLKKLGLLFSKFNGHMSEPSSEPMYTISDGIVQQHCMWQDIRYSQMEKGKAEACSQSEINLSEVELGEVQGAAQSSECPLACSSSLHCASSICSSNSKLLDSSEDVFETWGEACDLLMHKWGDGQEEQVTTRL

[2] = biological target: T2, Short transient receptor potential channel 5 (Homo sapiens) (UniProt Q9UL62); assay: Inhibition of human TRPC5 expressed in HEK293T cells assessed as intracellular calcium influx at 30 uM measured after 30 mins by Fluo-4 AM dye based fluorescence analysis; assay type: cell-based
T2 sequence (whole entry): T1 sequence (Q9UL62 whole entry)

[3] = system: HEK-293T; assay: Cytotoxicity against human HEK293T cells expressing human TRPC5 assessed as reduction in cell viability at 100 uM incubated for 24 hrs by MTS assay; assay type: toxicity, cell-based
[4] = system: HEK-293T; assay: Cytotoxicity against human HEK293T cells expressing human TRPC5 assessed as cell death incubated for 24 hrs by MTS assay; assay type: toxicity, cell-based

Row | IC50 [1] [µM] | inhibition [2] | SMILES | Activity [3] | Activity [4]
1 | 14.9 | – | c1ccc(Cn2c(NCc3ccco3)nc3ccccc32)cc1 | – | –
2 | 10.2 | Active | O=C(Cc1cccc(F)c1)NCc1nnc2ccc(-c3ccc(F)cc3)nn12 | Non-Toxic | –
3 | – | Active | CC(c1ccccc1)n1c(CCCO)nc2ccccc21 (stereo unspecified) | – | Toxic
